The test system of test [1] is MDA-MB-435 cells. In words: Cell viability (MTS). It counts as cell-based. The settings on record: 48 hours. How it is done:
(§1) Cells were cultured in RPMI-1640 containing 10% FBS (Jurkat and THP-1) or DMEM containing 10% FBS (A549 and MDA-MB-435). On Day 1, 1-5×10^4 cells per well in 100 μL of the cell culture medium containing 0.5% FBS were seeded into a 96-well flat bottom plate. On Day 2, the test compounds were added to the culture at different concentrations in triplicates. The controls include triplicates of no compound treatment and cell culture medium without cells. The cells were incubated at 5% CO2, 37° C. for 48 hours. On Day 4, MTS reagent was added to each well and incubated at 37° C. for 4 hours. The absorbance was read at 490 nm. The percentage of inhibition was calculated using the formula: [1-(experiment reading-background reading)/(negative control reading-background reading)]×100.

Test [2] relates to THP1 cells. In words: Cell viability (MTS). It counts as cell-based. As to conditions: 48 hours. How it is done:
as §1

The test system of test [3] is Jurkat cells. As to the kind of experiment: Cell viability (MTS). It counts as cell-based. The settings on record: 48 hours. How it is done: as §1
Test [4] deals with MDA-MB-435 cells. As to the kind of experiment: Cell proliferation ([3H]-thymidine). It counts as cell-based. As to conditions: 48 hours, read-out: Anti-proliferation IC50, MDA-MB-435. How it is done: (§2) Cells were cultured in RPMI-1640 containing 10% FBS (Jurkat) or DMEM containing 10% FBS (MDA-MB-435). On Day 1, 1×10^4 cells were seeded into one well of a 96-well white ISOPLATE™ with 0.5% FBS. The cells were cultured at 5% CO2, 37° C. overnight. On Day 2, the diluted test compounds were added into each well in a total volume of 100 μL of cell culture medium. For each cell line were set up three wells containing cells and only diluted DMSO as a negative (vehicle) control, and three wells without cells but containing the same volume and type of cell culture medium as background control. The cells were incubated at 5% CO2, 37° C. for 24 hours. On Day 3, 1 μL of [^3H]-thymidine was added into each well and incubation at 5% CO2, 37° C. was continued for another 24 hours. On Day 4, 30 μL of 50% TCA was added into each well and was incubated at 4° C. for 4 hours. Plates were washed with ddH2O four times and then air dried for 30 minutes followed by the addition of 100 μL of scintillation fluid into each well. The radioactivity was read using MICROBETA TRILUX™. The percentage of inhibition was calculated using the formula [1-(experiment reading-background reading)/(negative control reading-background reading)]×100.

The subject of test [5] is Jurkat cells. As to the kind of experiment: Cell proliferation ([3H]-thymidine). As to conditions: 48 hours, read-out: Anti-proliferation IC50, Jurkat. It is filed as cell-based. How it is done: as §2
Test [6] has as its target T1, recombinant human PDE4B1 enzyme (Homo sapiens, UniProt Q07343).
T1 construct: host or cells: baculoviral system
As to the kind of experiment: PDE4B1 radiometric enzyme assay. As to conditions: 1 μM cAMP. It is filed as biochemical. How it is done: Assays were performed using recombinant human PDE4B1 enzyme expressed in a baculoviral system. […] The reactions were performed at 1 μM of cAMP. The test articles were each tested at 0.2 μM and 20 μM in triplicates.

The test system of test [7] is A549 cells. As to the kind of experiment: Cell viability (MTS). It is filed as cell-based. The settings on record: 48 hours. How it is done: as §1

T1 sequence (Q07343 whole entry): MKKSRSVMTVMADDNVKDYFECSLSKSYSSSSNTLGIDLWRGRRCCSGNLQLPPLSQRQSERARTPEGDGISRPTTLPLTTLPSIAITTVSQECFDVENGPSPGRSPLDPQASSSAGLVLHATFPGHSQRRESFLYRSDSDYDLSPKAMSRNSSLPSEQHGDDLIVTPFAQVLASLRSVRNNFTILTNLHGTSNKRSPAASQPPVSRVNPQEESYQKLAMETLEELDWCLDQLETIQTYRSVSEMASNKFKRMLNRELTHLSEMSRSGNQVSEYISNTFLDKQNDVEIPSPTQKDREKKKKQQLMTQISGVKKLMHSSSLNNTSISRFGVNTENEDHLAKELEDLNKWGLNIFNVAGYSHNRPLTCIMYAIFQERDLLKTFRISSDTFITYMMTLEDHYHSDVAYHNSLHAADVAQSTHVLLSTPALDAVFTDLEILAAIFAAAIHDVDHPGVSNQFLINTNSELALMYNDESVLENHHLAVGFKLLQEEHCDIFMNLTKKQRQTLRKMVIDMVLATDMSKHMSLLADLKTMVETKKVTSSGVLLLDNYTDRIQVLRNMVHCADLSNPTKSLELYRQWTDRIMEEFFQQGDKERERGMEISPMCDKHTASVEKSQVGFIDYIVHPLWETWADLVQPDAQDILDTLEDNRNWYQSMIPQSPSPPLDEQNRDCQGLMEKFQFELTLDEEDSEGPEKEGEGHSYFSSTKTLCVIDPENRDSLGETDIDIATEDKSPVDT

Regarding `N#Cc1ccc(/C=C/c2ccc(C3CC3)c(O)c2)cc1C#N` [Compound 18], the IC50 in test [1] turned out to be 1270 nM; in test [2], 2400 nM; in test [3], 3280 nM.
As to `N#Cc1ccc(/C=C/c2ccc(C3CC3)c(O)c2)c(C#N)c1` [Compound 17], the IC50 in test [4] was found to be 1660 nM; in test [5], 1380 nM; in test [1], 1780 nM; in test [2], 2740 nM; in test [3] it was 7980 nM.
Take `Oc1cc(/C=C/c2ccc(F)cc2)ccc1C1CCCCCC1` [Compound 27]: the “Inhibitory activity on PDE4B1 enzyme” value in test [6] (0.2 μM compound) is “+ (“+” is 15-30% inhibition)”; in test [6] (20 μM compound), “+++ (“+++” is greater than 50% inhibition)”.
As to `Oc1cc(/C=C/c2ccc(F)cc2)ccc1C1CCCCC1` [Compound 24], the IC50 came to 390 nM in test [1], 7180 nM in test [2] and 2660 nM in test [3].
For `CC(C)c1ccc(/C=C/c2ccccc2)cc1O` [Compound 1], in that order: 25000 nM, 2250 nM and 2160 nM.
Consider `Oc1cc(/C=C/c2ccccc2)ccc1C1CC1` [Compound 11], for which the IC50 in test [4] was determined as 4250 nM; in test [5] it was 1710 nM.
With `Oc1cc(/C=C/c2c(F)cccc2F)ccc1C1CCCC1` [Compound 22], the IC50 in test [1] is 1720 nM; in test [2] it was 2460 nM; in test [3], 2960 nM.
Regarding `Oc1cc(/C=C/c2ccc(F)cc2F)ccc1C1CCCC1` [Compound 21], the IC50 in test [4] turned out to be 1770 nM; in test [5], 690 nM; in test [1], 1950 nM; in test [2] it was 6930 nM; in test [3], 3730 nM.
In the case of `Oc1cc(/C=C/c2ccc(F)cc2)ccc1C1CCCC1` [Compound 20], the “Inhibitory activity on PDE4B1 enzyme” value in test [6] (0.2 μM compound) is “+ (“+” is 15-30% inhibition)”; in test [6] (20 μM compound), “+++ (“+++” is greater than 50% inhibition)”.
With `Oc1cc(/C=C/c2ccc(F)cc2)ccc1C1CC1` [Compound 12], the IC50 in test [7] is 32000 nM; in test [1] it was 1620 nM; in test [2], 15400 nM; in test [3], 1650 nM. Moreover, the “Inhibitory activity on PDE4B1 enzyme” value was “+ (“+” is 15-30% inhibition)” in test [6] (0.2 μM compound) and “+++ (“+++” is greater than 50% inhibition)” in test [6] (20 μM compound).
